Legend:
Assay type in all cases: biochemical
Settings in all cases: 20 nM
PDE4D2 = PDE4D2 (Homo sapiens, UniProt Q08499); test: PDE4 inhibitory activity assay (FAM-cAMP enzymatic reaction), PDE4D2
How it was run: (§1)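 Each isoform is incubated with test compound for 15 min at room temperature before FAM-cAMP substrate starts a 30-min reaction.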

PDE4B1 = biological target: T1, PDE4B1 (Homo sapiens, UniProt Q07343); test: PDE4 inhibitory activity assay (FAM-cAMP enzymatic reaction), PDE4B1
T1 construct: purchased BPS 60041
T1 sequence (Q07343 whole entry): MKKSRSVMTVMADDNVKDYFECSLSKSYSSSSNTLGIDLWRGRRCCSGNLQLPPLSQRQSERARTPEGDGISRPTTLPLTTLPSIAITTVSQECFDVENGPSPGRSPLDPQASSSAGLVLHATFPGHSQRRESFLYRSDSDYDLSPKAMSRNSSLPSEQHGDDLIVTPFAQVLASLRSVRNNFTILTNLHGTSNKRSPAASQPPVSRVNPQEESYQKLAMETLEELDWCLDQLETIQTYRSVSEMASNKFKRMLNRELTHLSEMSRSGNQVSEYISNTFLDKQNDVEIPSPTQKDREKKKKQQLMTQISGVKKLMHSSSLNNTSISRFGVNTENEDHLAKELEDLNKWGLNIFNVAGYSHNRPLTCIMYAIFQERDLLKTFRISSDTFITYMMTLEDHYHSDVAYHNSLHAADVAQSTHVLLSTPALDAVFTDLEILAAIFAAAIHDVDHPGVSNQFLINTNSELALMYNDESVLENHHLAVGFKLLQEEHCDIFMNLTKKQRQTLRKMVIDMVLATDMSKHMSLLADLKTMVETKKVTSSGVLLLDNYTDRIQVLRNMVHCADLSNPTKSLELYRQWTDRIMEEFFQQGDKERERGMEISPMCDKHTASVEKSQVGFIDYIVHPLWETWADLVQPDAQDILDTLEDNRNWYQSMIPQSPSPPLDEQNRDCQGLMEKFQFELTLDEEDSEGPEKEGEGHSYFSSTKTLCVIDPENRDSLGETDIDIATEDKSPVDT
How it was run: as §1

PDE4A1A = biological target: T2, PDE4A1A (Homo sapiens, UniProt P27815); test: PDE4 inhibitory activity assay (FAM-cAMP enzymatic reaction), PDE4A1A
T2 construct: purchased BPS 60040
T2 sequence (P27815 1-647 isoform P27815-4): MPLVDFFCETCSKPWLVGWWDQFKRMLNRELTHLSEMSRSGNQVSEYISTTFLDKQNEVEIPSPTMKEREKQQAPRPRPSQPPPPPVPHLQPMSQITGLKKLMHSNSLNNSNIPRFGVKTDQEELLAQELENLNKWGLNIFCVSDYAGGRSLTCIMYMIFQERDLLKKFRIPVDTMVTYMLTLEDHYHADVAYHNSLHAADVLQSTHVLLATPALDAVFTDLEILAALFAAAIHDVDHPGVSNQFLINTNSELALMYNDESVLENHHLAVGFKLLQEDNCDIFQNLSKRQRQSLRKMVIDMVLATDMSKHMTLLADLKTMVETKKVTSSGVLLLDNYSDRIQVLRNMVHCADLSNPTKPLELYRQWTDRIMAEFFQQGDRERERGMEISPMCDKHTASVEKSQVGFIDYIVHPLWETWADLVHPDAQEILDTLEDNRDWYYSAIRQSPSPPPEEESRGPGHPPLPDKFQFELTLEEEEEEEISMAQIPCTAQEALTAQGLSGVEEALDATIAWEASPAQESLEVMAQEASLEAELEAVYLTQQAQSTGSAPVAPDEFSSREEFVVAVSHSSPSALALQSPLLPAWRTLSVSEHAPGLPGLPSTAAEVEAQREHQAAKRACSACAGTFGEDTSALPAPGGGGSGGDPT
How it was run: as §1

Chain of PDE4D2 (Q08499 303-809): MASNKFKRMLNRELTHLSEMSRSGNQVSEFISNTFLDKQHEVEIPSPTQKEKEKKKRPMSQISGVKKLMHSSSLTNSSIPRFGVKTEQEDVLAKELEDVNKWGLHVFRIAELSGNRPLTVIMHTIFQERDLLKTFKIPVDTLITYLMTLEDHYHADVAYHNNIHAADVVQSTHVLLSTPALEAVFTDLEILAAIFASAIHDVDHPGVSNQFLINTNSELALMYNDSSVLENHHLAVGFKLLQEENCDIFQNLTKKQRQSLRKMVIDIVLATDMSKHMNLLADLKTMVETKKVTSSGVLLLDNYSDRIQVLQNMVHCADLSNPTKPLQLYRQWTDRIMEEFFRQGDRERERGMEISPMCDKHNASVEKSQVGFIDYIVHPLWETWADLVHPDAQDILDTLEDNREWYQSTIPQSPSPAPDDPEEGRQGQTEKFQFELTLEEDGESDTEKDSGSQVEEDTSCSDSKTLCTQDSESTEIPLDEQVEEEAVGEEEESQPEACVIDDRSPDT

Compound	PDE4 D2 inhibitory effect at 20 nM (PDE4D2)	PDE4 B1 inhibitory effect at 20 nM (PDE4B1)	PDE4 A1 inhibitory effect at 20 nM (PDE4A1A)
CCOc1nc([C@@H](CS(C)(=O)=O)n2c(=O)[nH]c3cc(-c4c(F)cccc4F)ccc32)ccc1OC [Ex. 154, (S)-5-(2,6-difluorophenyl)-1-(1-(6-ethoxy-5-methoxypyridin-2-yl)-2-(methylsulfonyl)ethyl)-1H-benzo[d]imidazol-2(3H)-one]	+	+	+
CCOc1nc([C@@H](CS(C)(=O)=O)n2c(=O)n(C)c3cc(-c4c(F)cccc4F)ccc32)ccc1OC [Ex. 155, (S)-5-(2,6-difluorophenyl)-1-(1-(6-ethoxy-5-methoxypyridin-2-yl)-2-(methylsulfonyl)ethyl)-3-methyl-1H-benzo[d]imidazol-2(3H)-one]	+	+	+
CCOc1nc([C@@H](CS(C)(=O)=O)n2c(=O)n(C)c3cc(-c4ccc(F)cc4F)ccc32)ccc1OC [Ex. 157, (S)-5-(2,4-difluorophenyl)-1-(1-(6-ethoxy-5-methoxypyridin-2-yl)-2-(methylsulfonyl)ethyl)-3-methyl-1H-benzo[d]imidazol-2(3H)-one]	+	+	+
CCOc1nc([C@@H](CS(C)(=O)=O)n2c(=O)n(C)c3cc(-c4cc(F)c(F)cc4F)ccc32)ccc1OC [Ex. 159, (S)-5-(2,4,5-trifluorophenyl)-1-(1-(6-ethoxy-5-methoxypyridin-2-yl)-2-(methylsulfonyl)ethyl)-3-methyl-1H-benzo[d]imidazol-2(3H)-one]	+	+	+
CCOc1nc([C@@H](CS(C)(=O)=O)n2c(=O)[nH]c3cc(-c4cc(F)ccc4F)ccc32)ccc1OC [Ex. 160, (S)-5-(2,5-difluorophenyl)-1-(1-(6-ethoxy-5-methoxypyridin-2-yl)-2-(methylsulfonyl)ethyl)-1H-benzo[d]imidazol-2(3H)-one]	+	+	+
CCOc1nc([C@@H](CS(C)(=O)=O)n2c(=O)n(C)c3cc(-c4cc(F)ccc4F)ccc32)ccc1OC [Ex. 161, (S)-5-(2,5-difluorophenyl)-1-(1-(6-ethoxy-5-methoxypyridin-2-yl)-2-(methylsulfonyl)ethyl)-3-methyl-1H-benzo[d]imidazol-2(3H)-one]	+	+	+
CCOc1nc([C@@H](CS(C)(=O)=O)n2c(=O)[nH]c3cc(-c4ccc(C)cc4C)ccc32)ccc1OC [Ex. 162, (S)-5-(2,4-dimethylphenyl)-1-(1-(6-ethoxy-5-methoxypyridin-2-yl)-2-(methylsulfonyl)ethyl)-1H-benzo[d]imidazol-2(3H)-one]	+	+	+
CCOc1nc([C@@H](CS(C)(=O)=O)n2c(=O)[nH]c3cc(-c4cc(C)ccc4C)ccc32)ccc1OC [Ex. 164, (S)-5-(2,5-dimethylphenyl)-1-(1-(6-ethoxy-5-methoxypyridin-2-yl)-2-(methylsulfonyl)ethyl)-1H-benzo[d]imidazol-2(3H)-one]	+	+	+
CCOc1nc([C@@H](CS(C)(=O)=O)n2c(=O)[nH]c3cc(-c4c(C)cccc4C)ccc32)ccc1OC [Ex. 168, (S)-5-(2,6-dimethylphenyl)-1-(1-(6-ethoxy-5-methoxypyridin-2-yl)-2-(methylsulfonyl)ethyl)-1H-benzo[d]imidazol-2(3H)-one]	+	+	+
CCOc1nc([C@@H](CS(C)(=O)=O)n2c(=O)[nH]c3cc(-c4ccc(F)cc4C)ccc32)ccc1OC [Ex. 169, (S)-5-(4-fluoro-2-methylphenyl)-1-(1-(6-ethoxy-5-methoxypyridin-2-yl)-2-(methylsulfonyl)ethyl)-1H-benzo[d]imidazol-2(3H)-one]	+	+	+
CCOc1nc([C@@H](CS(C)(=O)=O)n2c(=O)n(C)c3cc(-c4ccc(F)cc4C)ccc32)ccc1OC [Ex. 170, (S)-5-(4-fluoro-2-methylphenyl)-1-(1-(6-ethoxy-5-methoxypyridin-2-yl)-2-(methylsulfonyl)ethyl)-3-methyl-1H-benzo[d]imidazol-2(3H)-one]	+	+	+
CCOc1nc([C@@H](CS(C)(=O)=O)n2c(=O)n(C)c3cc(-c4cc(F)ccc4C)ccc32)ccc1OC [Ex. 172, (S)-5-(5-fluoro-2-methylphenyl)-1-(1-(6-ethoxy-5-methoxypyridin-2-yl)-2-(methylsulfonyl)ethyl)-3-methyl-1H-benzo[d]imidazol-2(3H)-one]	+	+	+
CCOc1nc([C@@H](CS(C)(=O)=O)n2c(=O)[nH]c3cc(-c4cccc(F)c4C)ccc32)ccc1OC [Ex. 173, (S)-5-(3-fluoro-2-methylphenyl)-1-(1-(6-ethoxy-5-methoxypyridin-2-yl)-2-(methylsulfonyl)ethyl)-1H-benzo[d]imidazol-2(3H)-one]	+	+	+
CCOc1nc([C@@H](CS(C)(=O)=O)n2c(=O)n(C)c3cc(-c4cccc(F)c4C)ccc32)ccc1OC [Ex. 174, (S)-5-(3-fluoro-2-methylphenyl)-1-(1-(6-ethoxy-5-methoxypyridin-2-yl)-2-(methylsulfonyl)ethyl)-3-methyl-1H-benzo[d]imidazol-2(3H)-one]	+	+	+
CCOc1nc([C@@H](CS(C)(=O)=O)n2c(=O)n(C)c3cc(-c4cc(C)ccc4F)ccc32)ccc1OC [Ex. 176, (S)-5-(2-fluoro-5-methylphenyl)-1-(1-(6-ethoxy-5-methoxypyridin-2-yl)-2-(methylsulfonyl)ethyl)-3-methyl-1H-benzo[d]imidazol-2(3H)-one]	+	+	+
CCOc1nc([C@@H](CS(C)(=O)=O)n2c(=O)[nH]c3cc(-c4cccc(C)c4F)ccc32)ccc1OC [Ex. 177, (S)-5-(2-fluoro-3-methylphenyl)-1-(1-(6-ethoxy-5-methoxypyridin-2-yl)-2-(methylsulfonyl)ethyl)-1H-benzo[d]imidazol-2(3H)-one]	+	+	+

Now from value to compound:

PDE4 D2 inhibitory effect at 20 nM (PDE4D2)	PDE4 B1 inhibitory effect at 20 nM (PDE4B1)	PDE4 A1 inhibitory effect at 20 nM (PDE4A1A)	Compound
+	+	+	CCOc1nc([C@@H](CS(C)(=O)=O)n2c(=O)[nH]c3cc(-c4ccc(F)cc4F)ccc32)ccc1OC [Ex. 156, (S)-5-(2,4-difluorophenyl)-1-(1-(6-ethoxy-5-methoxypyridin-2-yl)-2-(methylsulfonyl)ethyl)-1H-benzo[d]imidazol-2(3H)-one]
+	+	+	CCOc1nc([C@@H](CS(C)(=O)=O)n2c(=O)[nH]c3cc(-c4cc(F)c(F)cc4F)ccc32)ccc1OC [Ex. 158, (S)-5-(2,4,5-trifluorophenyl)-1-(1-(6-ethoxy-5-methoxypyridin-2-yl)-2-(methylsulfonyl)ethyl)-1H-benzo[d]imidazol-2(3H)-one]
+	+	+	CCOc1nc([C@@H](CS(C)(=O)=O)n2c(=O)n(C)c3cc(-c4ccc(C)cc4C)ccc32)ccc1OC [Ex. 163, (S)-5-(2,4-dimethylphenyl)-1-(1-(6-ethoxy-5-methoxypyridin-2-yl)-2-(methylsulfonyl)ethyl)-3-methyl-1H-benzo[d]imidazol-2(3H)-one]
+	+	+	CCOc1nc([C@@H](CS(C)(=O)=O)n2c(=O)n(C)c3cc(-c4cc(C)ccc4C)ccc32)ccc1OC [Ex. 165, (S)-5-(2,5-dimethylphenyl)-1-(1-(6-ethoxy-5-methoxypyridin-2-yl)-2-(methylsulfonyl)ethyl)-3-methyl-1H-benzo[d]imidazol-2(3H)-one]
+	+	+	CCOc1nc([C@@H](CS(C)(=O)=O)n2c(=O)[nH]c3cc(-c4cccc(C)c4C)ccc32)ccc1OC [Ex. 166, (S)-5-(2,3-dimethylphenyl)-1-(1-(6-ethoxy-5-methoxypyridin-2-yl)-2-(methylsulfonyl)ethyl)-1H-benzo[d]imidazol-2(3H)-one]
+	+	+	CCOc1nc([C@@H](CS(C)(=O)=O)n2c(=O)n(C)c3cc(-c4cccc(C)c4C)ccc32)ccc1OC [Ex. 167, (S)-5-(2,3-dimethylphenyl)-1-(1-(6-ethoxy-5-methoxypyridin-2-yl)-2-(methylsulfonyl)ethyl)-3-methyl-1H-benzo[d]imidazol-2(3H)-one]
+	+	+	CCOc1nc([C@@H](CS(C)(=O)=O)n2c(=O)[nH]c3cc(-c4cc(C)ccc4F)ccc32)ccc1OC [Ex. 175, (S)-5-(2-fluoro-5-methylphenyl)-1-(1-(6-ethoxy-5-methoxypyridin-2-yl)-2-(methylsulfonyl)ethyl)-1H-benzo[d]imidazol-2(3H)-one]

From patent publication US20230141101A1, “PDE4 INHIBITOR COMPOUND AND MEDICAL USE THEREOF” (Suzhou Longbotai Pharmaceuticals Co., Ltd., priority 2020, published 2023)
